The values that follow come from PubChem BioAssay (NCI).

Assay in all cases: NCI-60 cell line screen, 48 h
Test [1] concerns SNB-75 CNS.
Test [2] concerns HOP-92 NSCLC.
Test [3] deals with CAKI-1 renal.
Test [4] concerns SF-295 CNS.
In test [5] the test system is MDA-MB-435.
The test system of test [6] is HS 578T breast.
In test [7] the test system is NCI-H226 lung.
Test [8] concerns SW-620 colon.
The subject of test [9] is OVCAR-3 ovarian.
The subject of test [10] is UO-31 renal.

Values joined by “and” are separate entries in the source; they are usually repeats but may differ in a detail not shown here. Identical values can stand only once.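 Interpolation was linear, between the two tested concentrations surrounding the appropriate level; five concentrations were tested over 48 hours in 96-well plates. GI50 = concentration required for 50% inhibition of growth. TGI marks complete inhibition of growth.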

As for `CC[C@](O)(C(=O)O)c1cc2n(c(=O)c1CO)Cc1cc3ccccc3nc1-2`, the GI50 in test [1] is 0.00391 µM and 0.016 µM; in test [2] it was 0.163 µM; in test [3], less than 0.0025 µM; in [4] it was 0.0029 µM and < 0.0134 µM; in test [5], 0.101 µM; in [6], 1.48 µM. For the same compound, the GI50 in test [8] is 0.0948 µM and 0.0713 µM and 0.025 µM; in test [9], 0.0775 µM and 0.268 µM and 0.0965 µM; in test [10] it was 0.0189 µM. Further, the TGI in test [1] was 0.201 µM and 0.0714 µM and 0.343 µM; in [2], 5.67 µM and 0.567 µM; in test [4] it was 0.101 µM and 0.0956 µM and 0.107 µM; in test [5] it was 0.632 µM and 0.516 µM; in test [6], 25 µM and 13.7 µM; in [7] it was 0.866 µM and 0.332 µM and 1.62 µM. Besides, the TGI in test [8] is 25 µM and 34.1 µM; in [9], 0.323 µM and 1.18 µM and 0.866 µM; in [10], 0.161 µM and 0.167 µM.

For `N#Cc1cc2cc3c4c(c2oc1=O)CCCN4CCC3`, the TGI in test [1], in test [2], in test [3], in test [4], in [5] and in test [6] was more than 100 µM throughout. The TGI in test [7], in test [8], in test [9] and in test [10] was more than 100 µM each time.

As to `COc1cc(/C=C/C(=O)c2c(C)n([O-])c3cc(C)c(C)cc3[n+]2=O)cc(OC)c1OC`, the GI50 was 19.8 µM in [1]; 18.2 µM in test [2]; 10.8 µM in [3]; 13.2 µM in test [4]; 20.4 µM in test [5]; 19.9 µM in test [6]. For the same compound, the GI50 in [7] was 21.6 µM; in test [8] it was 13.6 µM; in [9], 16.8 µM; in [10], 15.4 µM. Further, the TGI in test [1] is 41.3 µM; in [2], 42.5 µM; in test [3], 29.6 µM; in test [4], 34.8 µM; in test [5], more than 100 µM; in test [6], 54.2 µM. In addition, the TGI in [7] was 55.5 µM; in test [8] it was 40.7 µM; in test [9], 41.6 µM; in [10], 32.3 µM.

For `COC(=O)Nc1nc2c(OC)c(OC)c(OC)cc2[nH]1`, the GI50 was 15.4 µM in test [1]; 20.9 µM in [2]; 15.7 µM in test [3]; 27.9 µM in test [4]; 2.09 µM in test [5]; 30 µM in test [6]. In addition, the GI50 in test [7] was 61.4 µM; in test [8], 5.8 µM; in test [9], 15.6 µM; in [10], 36.4 µM. Further, the TGI is more than 92.6 µM in test [1]; more than 91.4 µM in test [2]; more than 100 µM in test [3]; more than 100 µM in test [4]; 5.71 µM in test [5]; more than 92.3 µM in [6]. Moreover, the TGI in test [7] is more than 100 µM; in [8] it was more than 100 µM; in test [9] it was 49.1 µM; in [10] it was more than 100 µM.

In the case of `CCOC(=O)Nc1nc2c(F)c(F)c(F)cc2s1`, the GI50 was 23.4 µM in [1]; 15.4 µM in test [2]; more than 100 µM in test [3]; 38.8 µM in [4]; more than 100 µM in test [5]; 27.4 µM in [6]. The GI50 in [7] is 46 µM; in test [8], more than 100 µM; in [9] it was 75.1 µM; in test [10], more than 100 µM. The TGI in test [1] was 94.4 µM; in test [2], 97.5 µM; in [3], more than 100 µM; in [4], more than 100 µM; in [5], more than 100 µM; in test [6] it was more than 100 µM. Besides, the TGI in test [7], in [8], in test [9] and in test [10] was more than 100 µM in each case.

In the case of `CC1=C[C@H]2c3c(c(O)c(O)c4oc5cc(O)cc(O)c5c(=O)c34)[C@H](c3cc(O)c(O)c4oc5cc(O)cc(O)c5c(=O)c34)[C@H]2C(C)(C)C1`, the GI50 is 1.51 µM and 2.08 µM in [1]; 1.94 µM and 1.1 µM in test [2]; 3.45 µM and 2.18 µM in [3]; 1.98 µM and 1.63 µM in test [4]; 0.962 µM and 1.29 µM in test [5]; 2.07 µM and 1.49 µM in [6]. The GI50 was 2.16 µM and 1.99 µM in test [7]; 1.26 µM and 1.28 µM in [8]; 1.7 µM and 2 µM in [9]; 1.38 µM and 1.55 µM in test [10]. Moreover, the TGI in [1] is 10.5 µM and 12.7 µM; in [2], 4.73 µM and 3.33 µM; in test [3], 11.1 µM and 6.53 µM; in [4], 6.32 µM and 4.96 µM; in test [5], 2.67 µM and 3.12 µM; in test [6], 8.9 µM and 7.39 µM. In addition, the TGI in test [7] was 5.88 µM and 5.25 µM; in [8] it was 4.69 µM and 3.5 µM; in test [9], 4.02 µM and 7.54 µM; in test [10], 3.28 µM and 8.22 µM.

On to `Cc1cc(C)cc(Nc2nccc(-c3c(-c4ccc(F)cc4)ncn3C3CCNCC3)n2)c1`, for which the GI50 was 1.25 µM in test [1]; 1.34 µM in test [2]; 1.24 µM in [3]; 1.85 µM in test [4]; 0.767 µM in test [5]; 1.96 µM in [6]. Also, the GI50 in test [7] is 1.67 µM; in test [8], 1.44 µM; in test [9], 1.39 µM; in test [10], 0.692 µM. In addition, the TGI in test [1] came out at 5.24 µM; in test [2], 3.53 µM; in test [3] it was 2.72 µM; in [4] it was 3.58 µM; in test [5], 2.09 µM; in test [6] it was 4.36 µM. For the same compound, the TGI in test [7] turned out to be 5.12 µM; in test [8], 3.07 µM; in test [9] it was 2.87 µM; in test [10] it was 2.15 µM.

`Cc1sc2nc(-c3ccccn3)c(/C=N/N=C(N)N)n2c1C`: the GI50 in test [1] is 21.2 µM; in test [2], 7.55 µM; in [3], 9.11 µM; in [4], 8.77 µM; in [5], 4.53 µM; in test [6], 12.7 µM. In addition, the GI50 in [7] is 5.74 µM; in test [8], 4.5 µM; in test [9], 8.03 µM; in [10], 8.94 µM. The TGI in test [1] was 47.4 µM; in [2] it was 15.8 µM; in [3], 18.3 µM; in test [4] it was 16.9 µM; in test [5] it was 10.1 µM; in [6] it was 27.7 µM. In addition, the TGI was 15.5 µM in test [7], 13.5 µM in test [8], 15.6 µM in [9] and 20.9 µM in test [10].

Turning to `Cn1c2ccccc2c2cc(-c3ccccc3)c3c(c21)C(=O)C=CC3=O`, the TGI in test [1] amounted to 67.1 µM; in test [2] it was 29.9 µM; in test [3], 39.3 µM; in test [4], 62.4 µM; in test [5], 51.7 µM; in test [6], 61.7 µM. Also, the TGI in [7] came to 76.7 µM; in test [8] it was 33.4 µM; in test [9], 31.7 µM; in test [10], 42.9 µM.
